The target of assay [1] is T1, KOR (Homo sapiens, UniProt P41145). Description: cell-based.
In the next assay the target is KORD (D138N hKOR) (Homo sapiens, UniProt P41145, D138N). In words: cell-based. Conditions: EC50(nM).
Assay [2] has as its system AGRP-ires-cre mice, ARC^AgRP neurons with hM3Dq and KORD. In words: Feeding study with multiplexed KOR and hM3Dq DREADD. It counts as in vivo. The following applies: hM3Dq and KORD in ARC^AgRP neurons; CNO 1mg/kg i.p.
In assay [3] the test system is VGAT-ires-Cre mice, VTA/SN^VGAT neurons. Description: Locomotor activity. It counts as in vivo.
The next assay has as its target KORD (Homo sapiens, UniProt P41145, D138N). In words: Radioligand competition binding, KORD.
Assay [4] deals with T1, KOR. Description: [3H]-diprenorphine radioligand competition binding, WT KOR. Background: Loss of bound radioactivity is the signal in a displacement assay; it reports binding, not function.

Peptide text beside a SMILES is read from it.

This note sets out measurements from article PMC4441592 (Neuron, 2015).

Take `CSCC[C@H](NC(=O)[C@H](Cc1ccccc1)NC(=O)CNC(=O)CNC(=O)[C@@H](N)Cc1ccc(O)cc1)C(=O)N[C@@H](CCCNC(=N)N)C(=O)N[C@@H](CCCNC(=N)N)C(=O)N[C@H](C(=O)NCC(=O)N[C@@H](CCCNC(=N)N)C(=O)N1CCC[C@H]1C(=O)N[C@@H](CCC(=O)O)C(=O)O)C(C)C` [BAM 12] (H-YGGFMRRVGRPE-OH): at KOR [1], the Emax – broadly, the greatest response seen or fitted, relative to the assay's reference – worked out at 99%. For the same compound, the figures for the EC50 at KOR [1] (EC50(nM)), on KOR [1] (pEC50 ± SEM) and on KORD (D138N hKOR) were 101 nM, 102 nM and greater than 10000 nM, respectively.
`CSCC[C@H](NC(=O)[C@H](Cc1ccccc1)NC(=O)CNC(=O)CNC(=O)[C@@H](N)Cc1ccc(O)cc1)C(=O)N[C@@H](CCCNC(=N)N)C(=O)N[C@@H](CCCNC(=N)N)C(=O)N[C@H](C(=O)NCC(=O)N[C@@H](CCCNC(=N)N)C(=O)N1CCC[C@H]1C(=O)N[C@@H](CCC(=O)O)C(=O)N[C@@H](Cc1c[nH]c2ccccc12)C(=O)N[C@@H](Cc1c[nH]c2ccccc12)C(=O)N[C@@H](CCSC)C(=O)N[C@@H](CC(=O)O)C(=O)N[C@@H](Cc1ccc(O)cc1)C(=O)N[C@@H](CCC(N)=O)C(=O)O)C(C)C` [BAM 18] (H-YGGFMRRVGRPEWWMDYQ-OH) showed an Emax at KOR [1] of 97%. Further, the EC50 (commonly the concentration that produces a half-maximal response) is 85 nM on KOR [1] (EC50(nM)), 85.1 nM at KOR [1] (pEC50 ± SEM) and greater than 10000 nM at KORD (D138N hKOR).
`CSCC[C@H](NC(=O)[C@H](Cc1ccccc1)NC(=O)CNC(=O)CNC(=O)[C@@H](N)Cc1ccc(O)cc1)C(=O)N[C@@H](CCCNC(=N)N)C(=O)N[C@@H](CCCNC(=N)N)C(=O)N[C@H](C(=O)NCC(=O)N[C@@H](CCCNC(=N)N)C(=O)N1CCC[C@H]1C(=O)N[C@@H](CCC(=O)O)C(=O)N[C@@H](Cc1c[nH]c2ccccc12)C(=O)N[C@@H](Cc1c[nH]c2ccccc12)C(=O)N[C@@H](CCSC)C(=O)N[C@@H](CC(=O)O)C(=O)N[C@@H](Cc1ccc(O)cc1)C(=O)N[C@@H](CCC(N)=O)C(=O)N[C@@H](CCCNC(=N)N)C(=O)N[C@@H](Cc1ccc(O)cc1)C(=O)NCC(=O)O)C(C)C` [BAM 22] (H-YGGFMRRVGRPEWWMDYQRYG-OH): the Emax at KOR [1] stood at 95%. For the same compound, the figures for the EC50 at KOR [1] (EC50(nM)), on KOR [1] (pEC50 ± SEM) and at KORD (D138N hKOR) were 93 nM, 93.3 nM and greater than 10000 nM, respectively.
As to `C[N+]1([O-])CCN(C2=Nc3cc(Cl)ccc3Nc3ccccc32)CC1` [CNO, clozapine-N-oxide], the “light cycle food intake” value in assay [2] is recorded as 0.75 ± 0.03 g. Further, in assay [3] (dual DREADD mice, 3.0 mg/kg CNO), the “locomotor activity, same session” value was “significant locomotor depression”. Moreover, the “locomotor activity in control mice” value in assay [3] (mCherry in VTA/SN^VGAT neurons, 3.0 mg/kg i.p.) is given as “did not affect behavior”. Moreover, the “locomotor activity vs vehicle” value in assay [3] (mice expressing both KORD and hM3Dq in VTA/SN^VGAT neurons, 3.0 mg/kg, different testing sessions) is “decreased locomotor activity”.
The compound `CC(C)C[C@H](NC(=O)[C@H](Cc1ccccc1)NC(=O)CNC(=O)CNC(=O)[C@@H](N)Cc1ccc(O)cc1)C(=O)N[C@@H](CCCNC(=N)N)C(=O)O` [Dynorphin A(1-6)] (H-YGGFLR-OH) gave an Emax at KOR [1] of 86%.
At KOR [1], `CC(C)C[C@H](NC(=O)[C@H](Cc1ccccc1)NC(=O)CNC(=O)CNC(=O)[C@@H](N)Cc1ccc(O)cc1)C(=O)N[C@@H](CCCNC(=N)N)C(=O)N[C@@H](CCCNC(=N)N)C(=O)O` [Dynorphin A(1-7)] returned a maximal response (Emax) of 97%.
As to `CC[C@H](C)[C@H](NC(=O)[C@H](CCCNC(=N)N)NC(=O)[C@H](CCCNC(=N)N)NC(=O)[C@H](CC(C)C)NC(=O)[C@H](Cc1ccccc1)NC(=O)CNC(=O)CNC(=O)[C@@H](N)Cc1ccc(O)cc1)C(=O)O` [Dynorphin A(1-8)], the Emax on KOR [1] stood at 94%.
In the case of `CC[C@H](C)[C@H](NC(=O)[C@H](CCCN=C(N)N)NC(=O)[C@H](CCCN=C(N)N)NC(=O)[C@H](CC(C)C)NC(=O)[C@H](Cc1ccccc1)NC(=O)CNC(=O)CNC(=O)[C@@H](N)Cc1ccc(O)cc1)C(=O)N[C@@H](CCCN=C(N)N)C(=O)O` [Dynorphin A(1-9)] (H-YGGFLRRIR-OH), the figures for the EC50 on KOR [1] (EC50(nM)), on KOR [1] (pEC50 ± SEM) and at KORD (D138N hKOR) were 127 nM, 129 nM and greater than 10000 nM, respectively.
At KOR [1], `CC[C@H](C)[C@H](NC(=O)[C@H](CCCNC(=N)N)NC(=O)[C@H](CCCNC(=N)N)NC(=O)[C@H](CC(C)C)NC(=O)[C@H](Cc1ccccc1)NC(=O)CNC(=O)CNC(=O)[C@@H](N)Cc1ccc(O)cc1)C(=O)N[C@@H](CCCNC(=N)N)C(=O)O` [Dynorphin A(1-9)] (H-YGGFLRRIR-OH) returned a maximum response (Emax) of 93%.
As to `CC[C@H](C)[C@H](NC(=O)[C@H](CCCNC(=N)N)NC(=O)[C@H](CCCNC(=N)N)NC(=O)[C@H](CC(C)C)NC(=O)[C@H](Cc1ccccc1)NC(=O)CNC(=O)CNC(=O)[C@@H](N)Cc1ccc(O)cc1)C(=O)N[C@@H](CCCNC(=N)N)C(=O)N1CCC[C@H]1C(=O)N[C@@H](CCCCN)C(=O)N[C@@H](CC(C)C)C(=O)N[C@@H](CCCCN)C(=O)O` [Dynorphin A(1-13)], the values for the Ki at KORD and on KOR [4] were 1620 nM and 3.16 nM, respectively. For the same compound, the results for the EC50 on KOR [1] (EC50(nM)), at KOR [1] (pEC50 ± SEM) and on KORD (D138N hKOR) were 19 nM, 19.5 nM and greater than 10000 nM, respectively.
Compound `CC(C)C[C@H](NC(=O)[C@H](Cc1ccccc1)NC(=O)CNC(=O)CNC(=O)[C@@H](N)Cc1ccc(O)cc1)C(=O)N[C@@H](CCCNC(=N)N)C(=O)N[C@@H](CCCNC(=N)N)C(=O)N[C@@H](CCC(N)=O)C(=O)N[C@@H](Cc1ccccc1)C(=O)N[C@@H](CCCCN)C(=O)N[C@H](C(=O)N[C@H](C(=O)N[C@H](C(=O)O)[C@@H](C)O)C(C)C)C(C)C` [Dynorphin B(1-13)] returned an Emax on KOR [1] of 100%.
On to `CSCC[C@H](NC(=O)[C@H](Cc1ccccc1)NC(=O)CNC(=O)CNC(=O)[C@@H](N)Cc1ccc(O)cc1)C(=O)N[C@@H](CCCNC(=N)N)C(=O)N[C@@H](Cc1ccccc1)C(=O)O` [Met-enkephalin-Arg-Phe] (H-YGGFMRF-OH), for which the Emax on KOR [1] was 99%.
As for `CSCC[C@H](NC(=O)[C@H](Cc1ccccc1)NC(=O)CNC(=O)CNC(=O)[C@@H](N)Cc1ccc(O)cc1)C(=O)O` [Met-enkephalin], the Emax at KOR [1] is 79%.
For `CSCC[C@H](NC(=O)[C@H](Cc1ccccc1)NC(=O)CNC(=O)CNC(=O)[C@@H](N)Cc1ccc(O)cc1)C(=O)N[C@@H](CCCNC(=N)N)C(=O)N[C@@H](CCCNC(=N)N)C(=O)N[C@H](C(N)=O)C(C)C` [Metorphamide], the Emax on KOR [1] stood at 97%. Besides, the EC50 is 108 nM at KOR [1] (EC50(nM)), 102 nM at KOR [1] (pEC50 ± SEM) and greater than 10000 nM on KORD (D138N hKOR).
For `CSCC[C@H](NC(=O)[C@H](Cc1ccccc1)NC(=O)CNC(=O)CNC(=O)[C@@H](N)Cc1ccc(O)cc1)C(=O)N[C@@H](CCCNC(=N)N)C(=O)N[C@@H](CCCNC(=N)N)C(=O)N[C@H](C(=O)NCC(=O)N[C@@H](CCCNC(=N)N)C(=O)N1CCC[C@H]1C(=O)N[C@@H](CCC(=O)O)C(=O)N[C@@H](Cc1c[nH]c2ccccc12)C(=O)N[C@@H](Cc1c[nH]c2ccccc12)C(=O)N[C@@H](CCSC)C(=O)N[C@@H](CC(=O)O)C(=O)N[C@@H](Cc1ccc(O)cc1)C(=O)N[C@@H](CCC(N)=O)C(=O)N[C@@H](CCCNC(=N)N)C(=O)N[C@@H](Cc1ccc(O)cc1)C(=O)NCC(=O)NCC(=O)N[C@@H](Cc1ccccc1)C(=O)N[C@@H](CC(C)C)C(=O)O)C(C)C` [Peptide E] (H-YGGFMRRVGRPEWWMDYQRYGGFL-OH) the same measures were 95%, 65 nM, 66.1 nM and greater than 10000 nM.
On KOR [1], `CC(C)C[C@H](NC(=O)[C@H](Cc1ccccc1)NC(=O)CNC(=O)CNC(=O)[C@@H](N)Cc1ccc(O)cc1)C(=O)N[C@@H](CCCNC(=N)N)C(=O)N[C@@H](CCCCN)C(=O)N[C@@H](Cc1ccc(O)cc1)C(=O)N1CCC[C@H]1C(=O)N[C@@H](CCCCN)C(=O)O` [α-Neoendrophin] (H-YGGFLRKYPK-OH) showed a maximal effect (Emax) of 95%. For the same compound, the EC50 is 64 nM at KOR [1] (EC50(nM)), 64.6 nM at KOR [1] (pEC50 ± SEM) and greater than 10000 nM on KORD (D138N hKOR).
For `CC[C@H](C)[C@H](NC(=O)[C@H](C)NC(=O)[C@H](CC(N)=O)NC(=O)[C@H](CCCCN)NC(=O)[C@H](Cc1ccccc1)NC(=O)[C@H](CC(C)C)NC(=O)[C@@H](NC(=O)[C@@H](NC(=O)[C@H](CC(C)C)NC(=O)[C@@H]1CCCN1C(=O)[C@@H](NC(=O)[C@H](CCC(N)=O)NC(=O)[C@H](CO)NC(=O)[C@H](CCCCN)NC(=O)[C@H](CCC(=O)O)NC(=O)[C@H](CO)NC(=O)[C@@H](NC(=O)[C@H](CCSC)NC(=O)[C@H](Cc1ccccc1)NC(=O)CNC(=O)CNC(=O)[C@@H](N)Cc1ccc(O)cc1)[C@@H](C)O)[C@@H](C)O)C(C)C)[C@@H](C)O)C(=O)N[C@H](C(=O)N[C@@H](CCCCN)C(=O)N[C@@H](CC(N)=O)C(=O)N[C@@H](C)C(=O)N[C@@H](Cc1ccc(O)cc1)C(=O)O)[C@@H](C)CC` [β-Endorphin (1-27)] (H-YGGFMTSEKSQTPLVTLFKNAIIKNAY-OH; N-terminus and C-terminus assumed) the same measures were 100%, 700 nM, 708 nM and greater than 10000 nM.
For `CC[C@H](C)[C@H](NC(=O)[C@H](C)NC(=O)[C@H](CC(N)=O)NC(=O)[C@H](CCCCN)NC(=O)[C@H](Cc1ccccc1)NC(=O)[C@H](CC(C)C)NC(=O)[C@@H](NC(=O)[C@@H](NC(=O)[C@H](CC(C)C)NC(=O)[C@@H]1CCCN1C(=O)[C@@H](NC(=O)[C@H](CCC(N)=O)NC(=O)[C@H](CO)NC(=O)[C@H](CCCCN)NC(=O)[C@H](CCC(=O)O)NC(=O)[C@H](CO)NC(=O)[C@@H](NC(=O)[C@H](CCSC)NC(=O)[C@H](Cc1ccccc1)NC(=O)CNC(=O)CNC(=O)[C@@H](N)Cc1ccc(O)cc1)[C@@H](C)O)[C@@H](C)O)C(C)C)[C@@H](C)O)C(=O)N[C@H](C(=O)N[C@@H](CCCCN)C(=O)N[C@@H](CC(N)=O)C(=O)N[C@@H](C)C(=O)N[C@@H](Cc1ccc(O)cc1)C(=O)N[C@@H](CCCCN)C(=O)N[C@@H](CCCCN)C(=O)NCC(=O)N[C@@H](CCC(=O)O)C(=O)O)[C@@H](C)CC` [β-Endorphin (1-31)] the same measures were 100%, 706 nM, 708 nM and greater than 10000 nM.
